Measurements published in patent US5705518A, “Method of activating photosensitive agents” (University of British Columbia, priority 1995, dated 1998).
Read-outs that look alike come from different tables or passages of the source.

Legend:
[1] = mouse, in vivo, iv; cited from earlier work
[2] = tested on: subcutaneous rat gliosarcomas; details: in vivo; cited from earlier work
[3] = tested on: M-1 (murine rhabdomyosarcoma) tumor; assay: Pilot study of shorter post injection intervals: PDT of M-1 tumor-bearing mice, light 15 min after liposomal BPD-MA; format: in vivo, DBA/2 mice; details: light 15 min post injection
Protocol: Liposomal BPD was dried and stored frozen at -20° C. in 1 ml aliquots. The appropriate number of aliquots were thawed immediately before use and diluted with 5% dextrose in water for injection into the animals.
Male DBA/2 mice (7-11 weeks old; Charles River Laboratories, St. Constant, Quebec, Canada) were used in these studies, unless otherwise specified. Shaving and depilation removed the hair very effectively from appropriate body surfaces. The mice were shaved and depilated with a commercially available depilator (Nair®) at least one day before being used in the experiments. Following injection the mice were kept in the dark for various lengths of time, as described below. Before and after the experiments the mice were kept in an animal facility with 12 hours of light and 12 hours of dark daily.
An argon pumped dye laser, whose power source was obtained from Spectra Physics (Series 2000, Mountain View, Calif.) and whose 5W argon ion pumped dye laser was obtained from Coherent (Model 599, Palo Alto, Calif.) was used to deliver a columnated beam of light having a wavelength of 690 (±3) nm. The argon laser was aimed at the skin to irradiate the tumor. The time of light exposure was varied to give different light doses, such as 50, 75 and 100 Joules/cm^2.
DBA/2 mice (weight 22±1 g) were used in this study. […]

M-1 tumor cells = assay: Dose ranging study: drug dose, light dose and post injection interval, M-1 tumor-bearing mice; format: in vivo, DBA/2 mice
M-1 tumor [4] = assay: Anti-tumor efficacy BPD-MA dose-response study (FIG. 4); format: in vivo, mice; details: 2.0 mg/kg (only group of 0.5, 1.0, 1.5, 2.0 mg/kg); 150 J/cm^2; three hours post injection
Protocol: FIG. 4 illustrates an anti-tumor efficacy dose-response study for BPD-MA, liposomal formulation. […] Light exposure took place three hours after injection.
For comparison, FIGS. 4 and 5 are provided. FIG. 4 summarizes results of a test involving the same mouse-tumor model, in which four different BPD-MA doses were given (0.5, 1.0, 1.5, and 2.0 mg/kg). Light exposure was 150 J/cm^2, administered after a post injection interval of three hours of darkness. Under this regimen, which is similar to current clinical regimens, the only group that was over 50% tumor free at 14 days was that group of mice receiving 2.0 mg/kg.

M-1 tumor [5] = assay: Light dose-response study at 690 nm (FIG. 5); format: in vivo, mice; details: 2 mg/kg BPD-MA, three hours post injection
Protocol: FIG. 5 illustrates a light dose-response study at 690 nm and with a BPD-MA dose of 2 mg/kg. […] Light exposure took place three hours after the injection of 2 mg/kg BPD-MA.
FIG. 5 summarizes results of a test involving the same mouse-tumor model, in which five different light exposures (50, 75, 100, 125 and 150 J/cm^2) were used three hours post injection with 2 mg/kg BPD-MA. Under this regimen, which is similar to current clinical regimens, 75% of the mice receiving 150 J/cm^2 and 50% of the mice receiving 125 J/cm^2 were tumor free at 14 days.

[6] = mouse, in vivo, iv, cited from earlier work
M-1 tumor [7] = assay: Comparison PDT with light three hours post injection (FIG. 3), M-1 tumor mouse; details: 2.0 mg/kg BPD-MA, 100 J/cm^2, 4 days (FIG. 3)
[8] = human, in vivo; cited from earlier work
bladder cancer = details: human, in vivo, cited from earlier work
[9] = 0.5 mg/kg, 50 J/cm^2, 30 min post injection, 2 mice, interim
[10] = 0.5 mg/kg, 75 J/cm^2, 15 min post injection, 2 mice, interim
[11] = 0.5 mg/kg, 100 J/cm^2, 15 min post injection, 5 mice, interim
[12] = 1.0 mg/kg, 50 J/cm^2, 15 min post injection, 4 mice, interim
[13] = 1.0 mg/kg, 50 J/cm^2, 30 min post injection, 5 mice, interim
[14] = 1.0 mg/kg, 75 J/cm^2, 15 min post injection, 5 mice, interim
[15] = 1.0 mg/kg, 100 J/cm^2, 15 min post injection, 4 mice, interim

Q: Which Tumor-skin ratios [1] does the source give for `C=Cc1c(C)c2cc3nc(cc4[nH]c(cc5nc(cc1[nH]2)C1(C)C5=CC=C(C(=O)OC)C1C(=O)OC)c(C)c4CCC(=O)O)C(CCC(=O)OC)=C3C` (stereo not drawn) [BPD-MB] here?
A: favorable

Q: For hematoporphyrin derivative, which “safety of direct injection compared with parenteral injection” value [2] is on record?
A: direct injection appeared to be safer than parenteral injection

Q: Which results are given for “benzoporphyrin derivative monoacid ring A [BPD-MA]”?
A: survival of mouse ([3]; 0.5 mg/kg BPD-MA, 75 J/cm^2, 24 hours (FIG. 2)): alive; survival of mouse ([3]; 1 mg/kg BPD-MA, 100 J/cm^2, 48 hours (FIG. 1)): alive; mice that developed tumors (M-1 tumor cells; 0.5 mg/kg BPD-MA, 50 J/cm^2, 30 minutes post injection): all mice developed tumors; tumor free at day 7 (M-1 tumor cells; 0.5 mg/kg BPD-MA, 100 J/cm^2, 15 minutes post injection, day 7, five mice): all were tumor free at day 7; mice that developed tumors by day 14 (M-1 tumor cells; 0.5 mg/kg BPD-MA, 100 J/cm^2, 15 minutes post injection, day 14): Three of five mice; # Tumor-Free, Day 7 (M-1 tumor cells; 0.5 mg/kg, 50 J/cm^2, 1 min post injection, 3 mice, interim): 3 mice; # Tumor-Free, Day 7 (M-1 tumor cells; 0.5 mg/kg, 50 J/cm^2, 15 min post injection, 2 mice, interim): 2 mice; # Tumor-Free, Day 7 (M-1 tumor cells; [9]): 0 mice; # Tumor-Free, Day 14 (M-1 tumor cells; [9]): 0 mice; # Tumor-Free, Day 7 column (observations on Day 2 post exposure) (M-1 tumor cells; 0.5 mg/kg, 75 J/cm^2, 1 min post injection, 2 mice, observed Day 2, interim): 2 mice; # Tumor-Free, Day 7 (M-1 tumor cells; [10]): 2 mice; # Tumor-Free, Day 14 (M-1 tumor cells; [10]): 2 mice; # Tumor-Free, Day 7 (M-1 tumor cells; 0.5 mg/kg, 100 J/cm^2, 1 min post injection, 3 mice, interim): 3 mice; # Tumor-Free, Day 7 (M-1 tumor cells; [11]): 5 mice; # Tumor-Free, Day 14 (M-1 tumor cells; [11]): 2 mice; # Tumor-Free, Day 7 (M-1 tumor cells; 0.5 mg/kg, 100 J/cm^2, 30 min post injection, 2 mice, interim): 2 mice; # Tumor-Free, Day 7 (M-1 tumor cells; 1.0 mg/kg, 50 J/cm^2, 1 min post injection, 4 mice, interim): 4 mice; # Tumor-Free, Day 7 (M-1 tumor cells; [12]): 4 mice; # Tumor-Free, Day 14 (M-1 tumor cells; [12]): 4 mice; # Tumor-Free, Day 7 (M-1 tumor cells; [13]): 4 mice; # Tumor-Free, Day 14 (M-1 tumor cells; [13]): 4 mice; # Tumor-Free, Day 7 (M-1 tumor cells; [14]): 5 mice; # Tumor-Free, Day 14 (M-1 tumor cells; [14]): 4 mice; # Tumor-Free, Day 7 (M-1 tumor cells; 1.0 mg/kg, 75 J/cm^2, 30 min post injection, 5 mice, interim): 4 mice; # Tumor-Free, Day 7 (M-1 tumor cells; [15]): 4 mice; # Tumor-Free, Day 14 (M-1 tumor cells; [15]): 4 mice; tumor free, animals followed to day 14 (M-1 tumor cells; all regimens of Table 1, day 14, interim): most are tumor free; tumor free at 14 days (M-1 tumor [4]): over 50%; tumor free at 14 days (M-1 tumor [5]; 125 J/cm^2): 50%; tumor free at 14 days (M-1 tumor [5]; 150 J/cm^2): 75%; BPD-MA in the tumor that was active ([6]; 3 h): 100%; BPD-MA in the tumor that was active ([6]; 24 h): 39%; degradation in livers and kidneys compared with tumors [6]: Both livers and kidneys degraded BPD-MA more quickly than did the tumors; survival of mouse (M-1 tumor [7]): alive; tumor eradication (M-1 tumor [7]): the tumor was eradicated; tumor palpability (M-1 tumor [7]): The tumor was not palpable

Q: What does the source list for porfimer sodium?
A: duration of photosensitivity (patient warning) [8]: six; relationship of photosensitivity to injected drug dose [8]: no apparent relationship of photosensitivity to injected drug dose; time of occurrence of skin phototoxicity (bladder cancer; iv, 2 mg/kg): ≤ 10 days; patients with irritative bladder symptoms (bladder cancer): Five
